According to article PMC6522510 (Nature Communications, 2019):
Where two headings read alike, the source gives them in different places.

Assays:
Set-up in all cases: species or system AML cell lines (8); Primary HTS, single concentration about 10 uM, Cell Titer Glo viability; log10 luminescence, per cent inhibition relative to cycloheximide control
Conditions in all cases: 72 h, relative to cycloheximide control, log10 luminescence, inhibitor
MV4-11 = tested on: MV4-11
U937 = tested on: U937
CMS = tested on: CMS
CHRF288-11 = tested on: CHRF288-11
M07e = tested on: M07e
MOLM-13 = tested on: MOLM-13
ML-2 = tested on: ML-2
CMK = tested on: CMK

Row | Compound | MV4-11 %inh (MV4-11) | U937 %inh (U937) | CMS %inh (CMS) | CHRF288-11 %inh (CHRF288-11) | M07e %inh (M07e) | MOLM-13 %inh (MOLM-13) | ML-2 %inh (ML-2) | CMK %inh (CMK) | MV4-11 %inh (MV4-11; MV4-11 %inh, 10 µM) | U937 %inh (U937; U937 %inh, 10 µM) | CMS %inh (CMS; CMS %inh, 10 µM) | CHRF288-11 %inh (CHRF288-11; CHRF288-11 %inh, 10 µM) | M07e %inh (M07e; M07e %inh, 10 µM) | MOLM-13 %inh (MOLM-13; MOLM-13 %inh, 10 µM) | ML-2 %inh (ML-2; ML-2 %inh, 10 µM) | CMK %inh (CMK; CMK %inh, 10 µM)
1 | C=CC1=C(C(=O)O)N2C(=O)[C@@H](NC(=O)/C(=N\O)c3csc(N)n3)[C@H]2SC1 [SJ000286082-3] | 0.05121% | 3.234% | 3.32% | 4.774% | 3.525% | 11.38% | 2.212% | 1.925% |  |  |  |  |  |  |  | 
2 | CCCCC(=O)N(Cc1ccc(-c2ccccc2-c2nnn[nH]2)cc1)[C@H](C(=O)O)C(C)C [SJ000286083-3] |  |  |  |  |  |  |  |  | -0.8771% | 1.517% | 1.896% | 2.31% | -3.413% | -0.1457% | 1.672% | -2.006%
3 | CCCCC(=O)N(Cc1ccc(-c2ccccc2-c2nnn[nH]2)cc1)[C@H](C(=O)O)C(C)C [SJ000286083-4] |  |  |  |  |  |  |  |  | -5.399% | -0.1303% | -1.191% | 3.369% | -1.607% | -2.877% | -0.2697% | -2.819%
4 | Cc1cccc(Nc2ccncc2S(=O)(=O)NC(=O)NC(C)C)c1 [SJ000286085-4, TORSEMIDE] |  |  |  |  |  |  |  |  | 3.27% | 0.4443% | -0.4672% | 121.5% | 11.12% | 0.9883% | -0.2644% | 4.671%
5 | Cc1cccc(Nc2ccncc2S(=O)(=O)NC(=O)NC(C)C)c1 [SJ000286085-5, TORSEMIDE] |  |  |  |  |  |  |  |  | 0.9899% | -1.512% | -2.109% | 0.4254% | 1.697% | -1.664% | 1.771% | -7.265%
6 | C[C@]12CCC(=O)C=C1C=C[C@@H]1[C@@H]2CC[C@@]2(C)[C@H]1CC[C@@]21CCC(=O)O1 [SJ000286091-3, CANRENONE] | 4.82% | 3.254% | 0.603% | 2.724% | 2.621% | 5.53% | 3.227% | 0.4745% |  |  |  |  |  |  |  | 
7 | CCOC(=O)[C@H](CCc1ccccc1)N[C@@H](C)C(=O)N1[C@H](C(=O)O)C[C@H]2CCCC[C@@H]21 [SJ000286095-3, TRANDOLAPRIL] | 3.149% | 1.075% | -0.04443% | 2.18% | 4.953% | 4.361% | -0.1668% | -2.955% |  |  |  |  |  |  |  | 
8 | CN1CCN(C2=Nc3ccccc3Oc3ccc(Cl)cc32)CC1 [SJ000286106-7, LOXAPINE SUCCINATE] | 2.165% | 3.14% | 1.134% | 14.63% | 4.618% | 7.459% | 1.422% | -0.3035% |  |  |  |  |  |  |  | 
9 | NS(=O)(=O)c1cc2c(cc1Cl)NC(C(Cl)Cl)NS2(=O)=O (stereo not shown) [SJ000286143-4, TRICHLORMETHIAZIDE] | -3.026% | -14.58% | 0.3933% | 5.642% | -1.321% | -1.049% | -0.7669% | 3.577% |  |  |  |  |  |  |  | 
10 | CCCc1cc(=O)[nH]c(=S)[nH]1 [SJ000286145-4, PROPYLTHIOURACIL] | 0.3408% | -0.4734% | -1.815% | 1.792% | 2.631% | -0.9508% | 1.023% | -4.099% |  |  |  |  |  |  |  | 
11 | C[C@]12CCC(=O)C=C1CC[C@@H]1[C@@H]2[C@@H](O)C[C@@]2(C)[C@H]1CC[C@]2(O)C(=O)COP(=O)(O)O [SJ000286156-3, HYDROCORTISONE SODIUM PHOSPHATE] | -4.752% | 5.176% | -1.283% | 4.933% | 0.6039% | 15.41% | 0.191% | 0.9258% |  |  |  |  |  |  |  | 
12 | CCCCCCCCCCCCCCCCOP(=O)([O-])OCC[N+](C)(C)C [SJ000286181-3, MILTEFOSINE] | -0.6681% | -1.059% | -1.205% | 1.656% | 2.383% | 1.005% | -0.1071% | -1.001% |  |  |  |  |  |  |  | 
13 | CN(C)C(=O)Oc1ccc[n+](C)c1 [SJ000286222-6, PYRIDOSTIGMINE BROMIDE] | -1.282% | 1.718% | -3.618% | -1.775% | 2.078% | -2.128% | 1.797% | -7.252% |  |  |  |  |  |  |  | 
14 | CC(=O)O[C@]1(C(C)=O)CC[C@H]2[C@@H]3C=C(Cl)C4=CC(=O)[C@@H]5C[C@@H]5[C@]4(C)[C@H]3CC[C@@]21C [SJ000286483-6, CYPROTERONE ACETATE] | 2.562% | 1.732% | 2.38% | -0.8844% | 0.443% | -1.163% | -2.366% | -1.818% |  |  |  |  |  |  |  | 
15 | CCCCC1=NC2(CCCC2)C(=O)N1Cc1ccc(-c2ccccc2-c2nnn[nH]2)cc1 [SJ000286674-2, IRBESARTAN] | 1.017% | -0.5514% | -2.028% | 1.638% | 0.4149% | 17.32% | 1.25% | 0.3545% |  |  |  |  |  |  |  | 
16 | CC(C)=CCC/C(C)=C/CC/C(C)=C/CO [SJ000286702-2, FARNESOL] | -0.08153% | -0.4236% | -1.627% | -1.355% | 1.694% | -0.6204% | 1.139% | -1.858% |  |  |  |  |  |  |  | 
17 | C[C@H](CS)C(=O)N1CCC[C@H]1C(=O)O [SJ000286908-7, CAPTOPRIL] |  |  |  |  |  |  |  |  | 2.877% | 2.172% | 0.1894% | 0.04975% | 3.365% | 2.932% | -0.2844% | -2.127%
